Assay results taken from publication PMC9127186, “Molecular Basis Underlying Hepatobiliary and Renal Excretion of Phenolic Acids of Salvia miltiorrhiza Roots (Danshen)” (Frontiers in Pharmacology, 2022).

How the values were obtained:
[1] = molecular target: human MRP3 (Homo sapiens, UniProt O15438); assay: Vesicular transport assay, inside-out membrane vesicles expressing human MRP3; settings: 10 min
Description: (§1) Inside-out membrane vesicles (5 mg protein/mL), prepared from insect cells expressing human multidrug resistance-associated protein (MRP) 2, MRP3, MRP4, breast cancer resistance protein (BCRP), bile salt export pump (BSEP), and multidrug resistance protein (MDR) one and rat Mrp2, Mrp4, Bcrp, and Bsep, and vesicles (5 mg protein/mL; prepared from the insect cells expressing no ABC transporter; serving as negative control) were obtained from Genomembrane (Kanazawa, Japan).
(§2) The test Danshen compounds at 100 µM final concentration were separately incubated with the membrane vesicles for 10 min. Buffer C (50 mM MOPS-tris, 70 mM KCl, 7.5 mM MgCl2, pH 7.0) was used for preincubation and incubation, while buffer D (40 mM MOPS-tris, 70 mM KCl, pH 7.0) was used for vesicle washing. The transport rate (pmol/mg protein/min) of the test Danshen compound was calculated using Equation (2): Transport=(CV×VV)/T/WV (2) where C V, V V, T, and W V represent concentration of the compound in vesicular lysates supernatant (μM), volume of the lysates (μL), incubation time (10 min), and amount of vesicle protein amount per well (0.05 mg), respectively. Differential transport of the test Danshen compound between ATP-containing vesicles and AMP-containing vesicles was defined as net transport ratio (TransportATP/TransportAMP ratio). […] All the incubation samples were analyzed by liquid chromatography/mass spectrometry.

[2] = molecular target: rat Mrp2 (Rattus norvegicus, UniProt Q63120); assay: Vesicular transport assay, inside-out membrane vesicles expressing rat Mrp2; settings: for TransportATP/TransportAMP ratio (net transport ratio): 10 min
Description: as §1, §2

[3] = molecular target: human MRP2 (Homo sapiens, UniProt Q92887); assay: Vesicular transport assay, inside-out membrane vesicles expressing human MRP2; settings: for TransportATP/TransportAMP ratio (net transport ratio): 10 min
Description: as §1, §2

[4] = molecular target: T1, rat Bsep (Rattus norvegicus, UniProt O70127); assay: Vesicular transport assay, inside-out membrane vesicles expressing rat Bsep; settings: 10 min
T1 sequence (O70127 1-1321): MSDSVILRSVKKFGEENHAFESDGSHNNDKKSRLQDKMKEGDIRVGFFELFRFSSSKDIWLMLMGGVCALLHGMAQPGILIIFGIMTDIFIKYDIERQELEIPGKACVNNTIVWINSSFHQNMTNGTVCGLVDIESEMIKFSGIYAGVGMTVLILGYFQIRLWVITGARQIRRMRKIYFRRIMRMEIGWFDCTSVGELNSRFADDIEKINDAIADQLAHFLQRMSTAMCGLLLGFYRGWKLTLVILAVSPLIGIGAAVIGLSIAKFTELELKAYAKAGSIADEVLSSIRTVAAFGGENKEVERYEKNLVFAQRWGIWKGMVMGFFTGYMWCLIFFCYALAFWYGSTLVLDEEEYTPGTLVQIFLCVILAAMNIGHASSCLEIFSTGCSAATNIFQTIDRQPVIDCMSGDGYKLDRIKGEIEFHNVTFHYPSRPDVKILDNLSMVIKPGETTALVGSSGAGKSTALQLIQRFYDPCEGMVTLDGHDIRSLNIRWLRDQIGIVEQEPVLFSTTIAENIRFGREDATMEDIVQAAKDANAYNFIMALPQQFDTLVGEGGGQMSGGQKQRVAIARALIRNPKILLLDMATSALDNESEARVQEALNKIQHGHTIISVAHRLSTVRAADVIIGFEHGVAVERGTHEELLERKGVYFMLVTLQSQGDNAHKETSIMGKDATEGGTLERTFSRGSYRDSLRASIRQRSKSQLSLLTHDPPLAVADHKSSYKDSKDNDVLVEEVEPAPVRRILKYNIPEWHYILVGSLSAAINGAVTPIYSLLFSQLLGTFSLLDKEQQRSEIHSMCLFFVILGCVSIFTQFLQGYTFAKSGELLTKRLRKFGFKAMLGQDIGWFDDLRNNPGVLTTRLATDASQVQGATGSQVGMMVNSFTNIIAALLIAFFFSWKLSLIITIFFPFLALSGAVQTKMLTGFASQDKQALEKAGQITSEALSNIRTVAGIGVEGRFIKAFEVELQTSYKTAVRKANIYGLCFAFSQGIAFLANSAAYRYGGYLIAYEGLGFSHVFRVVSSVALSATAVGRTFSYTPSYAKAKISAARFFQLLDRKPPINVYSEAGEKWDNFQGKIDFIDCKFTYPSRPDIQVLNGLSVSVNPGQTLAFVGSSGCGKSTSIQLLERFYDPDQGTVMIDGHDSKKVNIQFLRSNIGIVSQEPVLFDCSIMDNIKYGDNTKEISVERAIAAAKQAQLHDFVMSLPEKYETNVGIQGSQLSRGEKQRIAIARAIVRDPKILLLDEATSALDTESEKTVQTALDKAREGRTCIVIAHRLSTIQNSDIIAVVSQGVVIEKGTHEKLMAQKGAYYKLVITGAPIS
Description: as §1, §2

[5] = Danshen phenolic acid at 100 μM final concentration, human MRP3 vesicles
[6] = Danshen phenolic acid at 100 μM final concentration, rat Mrp2 vesicles
[7] = Danshen phenolic acid at 100 μM final concentration, human MRP2 vesicles
[8] = Danshen phenolic acid at 100 μM final concentration, rat Bsep vesicles

human MRP3, sequence (O15438 whole entry): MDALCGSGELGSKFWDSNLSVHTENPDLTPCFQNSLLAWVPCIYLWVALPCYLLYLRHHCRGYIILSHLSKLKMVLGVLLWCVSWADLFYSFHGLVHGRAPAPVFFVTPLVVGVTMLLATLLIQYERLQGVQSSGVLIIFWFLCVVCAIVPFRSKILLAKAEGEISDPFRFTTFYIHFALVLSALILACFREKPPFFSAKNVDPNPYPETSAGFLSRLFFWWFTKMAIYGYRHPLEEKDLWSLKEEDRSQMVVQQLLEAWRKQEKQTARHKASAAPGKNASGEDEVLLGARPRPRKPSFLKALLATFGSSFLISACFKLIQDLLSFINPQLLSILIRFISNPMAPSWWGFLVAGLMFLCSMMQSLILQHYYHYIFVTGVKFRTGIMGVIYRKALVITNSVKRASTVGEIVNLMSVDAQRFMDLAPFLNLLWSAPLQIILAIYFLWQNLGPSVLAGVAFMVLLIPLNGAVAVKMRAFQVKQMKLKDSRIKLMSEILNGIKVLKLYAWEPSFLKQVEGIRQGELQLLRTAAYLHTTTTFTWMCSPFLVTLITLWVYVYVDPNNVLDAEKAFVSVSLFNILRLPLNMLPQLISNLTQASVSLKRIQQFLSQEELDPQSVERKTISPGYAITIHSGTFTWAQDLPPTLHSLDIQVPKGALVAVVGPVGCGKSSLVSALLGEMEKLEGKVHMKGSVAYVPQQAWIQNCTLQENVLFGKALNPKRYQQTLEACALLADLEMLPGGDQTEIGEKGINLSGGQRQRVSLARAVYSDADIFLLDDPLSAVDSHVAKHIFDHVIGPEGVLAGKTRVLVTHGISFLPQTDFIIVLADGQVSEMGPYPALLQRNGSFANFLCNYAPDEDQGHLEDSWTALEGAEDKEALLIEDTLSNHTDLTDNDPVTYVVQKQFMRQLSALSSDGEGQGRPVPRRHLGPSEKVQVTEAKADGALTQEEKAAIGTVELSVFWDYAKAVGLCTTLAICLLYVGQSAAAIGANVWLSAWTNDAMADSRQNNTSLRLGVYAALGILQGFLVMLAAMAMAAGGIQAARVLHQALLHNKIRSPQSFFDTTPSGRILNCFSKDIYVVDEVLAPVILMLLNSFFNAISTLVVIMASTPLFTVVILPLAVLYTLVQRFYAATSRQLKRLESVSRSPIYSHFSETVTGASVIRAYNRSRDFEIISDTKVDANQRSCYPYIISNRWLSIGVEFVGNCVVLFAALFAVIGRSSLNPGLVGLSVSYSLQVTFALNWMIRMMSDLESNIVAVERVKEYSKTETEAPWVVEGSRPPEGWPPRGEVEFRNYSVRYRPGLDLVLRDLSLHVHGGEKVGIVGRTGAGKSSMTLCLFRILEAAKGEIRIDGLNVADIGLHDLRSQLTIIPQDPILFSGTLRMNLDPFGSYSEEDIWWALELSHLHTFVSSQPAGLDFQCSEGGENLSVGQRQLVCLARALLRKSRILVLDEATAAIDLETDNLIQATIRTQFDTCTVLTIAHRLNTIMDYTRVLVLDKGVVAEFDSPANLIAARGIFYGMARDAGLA
human MRP2, sequence (Q92887 whole entry): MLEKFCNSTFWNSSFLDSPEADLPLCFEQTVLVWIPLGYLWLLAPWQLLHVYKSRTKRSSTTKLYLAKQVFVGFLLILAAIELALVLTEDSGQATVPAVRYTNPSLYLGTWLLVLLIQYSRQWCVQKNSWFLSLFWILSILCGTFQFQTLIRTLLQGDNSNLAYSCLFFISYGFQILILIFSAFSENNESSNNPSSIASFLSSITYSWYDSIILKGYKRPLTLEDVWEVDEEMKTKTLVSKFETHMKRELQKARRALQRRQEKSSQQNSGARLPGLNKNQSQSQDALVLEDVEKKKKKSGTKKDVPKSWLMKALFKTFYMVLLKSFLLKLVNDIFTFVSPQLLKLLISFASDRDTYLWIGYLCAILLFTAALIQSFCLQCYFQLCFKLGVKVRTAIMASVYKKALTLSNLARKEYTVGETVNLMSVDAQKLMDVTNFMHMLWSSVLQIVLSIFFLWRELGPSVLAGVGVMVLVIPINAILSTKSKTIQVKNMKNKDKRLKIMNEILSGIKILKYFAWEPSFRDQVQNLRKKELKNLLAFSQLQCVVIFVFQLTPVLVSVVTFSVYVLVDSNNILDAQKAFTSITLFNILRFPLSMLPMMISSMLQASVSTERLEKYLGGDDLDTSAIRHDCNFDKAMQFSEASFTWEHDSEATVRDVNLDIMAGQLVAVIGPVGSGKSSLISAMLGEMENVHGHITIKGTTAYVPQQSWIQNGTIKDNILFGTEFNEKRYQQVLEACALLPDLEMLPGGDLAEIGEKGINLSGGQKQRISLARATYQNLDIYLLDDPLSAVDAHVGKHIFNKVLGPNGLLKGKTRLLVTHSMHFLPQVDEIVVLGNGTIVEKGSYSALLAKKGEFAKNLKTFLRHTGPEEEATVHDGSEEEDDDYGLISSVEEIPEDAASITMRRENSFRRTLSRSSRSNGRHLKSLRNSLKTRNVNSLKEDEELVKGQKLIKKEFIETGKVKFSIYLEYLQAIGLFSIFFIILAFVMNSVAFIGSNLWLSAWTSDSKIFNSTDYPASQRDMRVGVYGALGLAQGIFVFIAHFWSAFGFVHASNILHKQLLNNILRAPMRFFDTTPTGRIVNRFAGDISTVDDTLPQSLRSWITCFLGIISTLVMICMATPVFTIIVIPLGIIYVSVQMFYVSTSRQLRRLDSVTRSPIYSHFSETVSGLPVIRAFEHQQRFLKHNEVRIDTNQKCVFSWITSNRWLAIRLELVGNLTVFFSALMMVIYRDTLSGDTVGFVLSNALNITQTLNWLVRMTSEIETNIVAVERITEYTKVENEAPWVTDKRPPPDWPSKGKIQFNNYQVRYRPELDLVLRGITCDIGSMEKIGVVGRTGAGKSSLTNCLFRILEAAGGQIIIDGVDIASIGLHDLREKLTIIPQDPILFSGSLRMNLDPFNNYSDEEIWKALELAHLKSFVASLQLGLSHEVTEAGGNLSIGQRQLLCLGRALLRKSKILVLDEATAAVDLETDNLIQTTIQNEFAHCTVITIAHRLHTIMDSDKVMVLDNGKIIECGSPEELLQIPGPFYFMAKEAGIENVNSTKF
rat Mrp2, sequence (Q63120 whole entry): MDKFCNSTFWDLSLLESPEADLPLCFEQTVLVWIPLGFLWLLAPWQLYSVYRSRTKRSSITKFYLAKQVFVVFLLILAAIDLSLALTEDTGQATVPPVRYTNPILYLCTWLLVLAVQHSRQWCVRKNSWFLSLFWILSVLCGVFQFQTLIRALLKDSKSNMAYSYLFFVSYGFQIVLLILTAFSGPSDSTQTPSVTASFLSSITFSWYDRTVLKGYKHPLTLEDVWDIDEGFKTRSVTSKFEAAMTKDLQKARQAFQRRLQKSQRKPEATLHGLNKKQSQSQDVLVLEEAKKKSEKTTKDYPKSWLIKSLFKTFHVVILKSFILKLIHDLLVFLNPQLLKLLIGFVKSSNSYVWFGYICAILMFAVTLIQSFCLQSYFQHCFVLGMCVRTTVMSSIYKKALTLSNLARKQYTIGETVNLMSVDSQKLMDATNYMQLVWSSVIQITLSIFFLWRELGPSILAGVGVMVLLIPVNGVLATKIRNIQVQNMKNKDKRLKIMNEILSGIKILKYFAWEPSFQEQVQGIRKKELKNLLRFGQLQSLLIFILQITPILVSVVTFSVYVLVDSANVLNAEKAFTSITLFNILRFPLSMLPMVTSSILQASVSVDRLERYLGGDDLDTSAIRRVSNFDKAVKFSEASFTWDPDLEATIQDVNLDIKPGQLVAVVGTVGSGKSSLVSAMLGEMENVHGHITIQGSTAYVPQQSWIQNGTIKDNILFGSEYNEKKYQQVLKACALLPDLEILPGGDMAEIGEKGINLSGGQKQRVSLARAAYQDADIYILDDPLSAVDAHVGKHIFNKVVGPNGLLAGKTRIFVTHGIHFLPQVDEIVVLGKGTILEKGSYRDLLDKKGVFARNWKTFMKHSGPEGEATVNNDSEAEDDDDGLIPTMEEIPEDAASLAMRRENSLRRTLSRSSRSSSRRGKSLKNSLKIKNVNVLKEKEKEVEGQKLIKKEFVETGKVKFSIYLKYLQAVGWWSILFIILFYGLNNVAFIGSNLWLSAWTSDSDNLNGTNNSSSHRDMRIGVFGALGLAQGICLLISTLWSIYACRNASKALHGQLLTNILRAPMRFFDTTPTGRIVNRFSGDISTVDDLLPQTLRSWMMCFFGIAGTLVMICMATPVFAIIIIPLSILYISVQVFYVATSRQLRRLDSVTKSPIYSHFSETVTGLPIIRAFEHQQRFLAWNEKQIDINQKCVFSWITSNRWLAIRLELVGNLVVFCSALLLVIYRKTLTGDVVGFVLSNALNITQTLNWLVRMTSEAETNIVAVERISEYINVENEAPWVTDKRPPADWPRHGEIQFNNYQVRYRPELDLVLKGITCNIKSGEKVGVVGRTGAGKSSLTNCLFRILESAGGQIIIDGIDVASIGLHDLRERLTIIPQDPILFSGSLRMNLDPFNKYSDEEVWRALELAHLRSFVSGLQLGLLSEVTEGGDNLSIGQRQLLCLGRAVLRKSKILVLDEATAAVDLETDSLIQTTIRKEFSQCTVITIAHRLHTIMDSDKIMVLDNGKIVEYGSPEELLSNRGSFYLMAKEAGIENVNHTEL

| Molecule | TransportATP/TransportAMP ratio (net transport ratio) [1, 5] | TransportATP/TransportAMP ratio (net transport ratio) [2, 6] | substrate of human MRP2 [3] | TransportATP/TransportAMP ratio (net transport ratio) [3, 7] | TransportATP/TransportAMP ratio (net transport ratio) [4, 8] | TransportATP/TransportAMP ratio (net transport ratio) ([1]; human, 100 μM, pH 7) | TransportATP/TransportAMP ratio (net transport ratio) ([2]; rat, 100 μM, pH 7) | TransportATP/TransportAMP ratio (net transport ratio) ([3]; human, 100 μM, pH 7) | TransportATP/TransportAMP ratio (net transport ratio) ([4]; rat, 100 μM, pH 7) | substrate of rat Mrp2 [2] |
| --- | --- | --- | --- | --- | --- | --- | --- | --- | --- | --- |
| O=C(/C=C/c1ccc(O)c2c1[C@H](C(=O)O)[C@@H](c1ccc(O)c(O)c1)O2)O[C@H](Cc1ccc(O)c(O)c1)C(=O)O [Lithospermic acid, lithospermic acid] | 1.72 ± 0.28 | 1.83 ± 0.45 | substrates | 5.02 ± 1.67 | 1.69 ± 0.37 |  |  |  |  |  |
| O=C(O)c1ccc(O)c(O)c1 [Protocatechuic acid, protocatechuic acid] | 1.25 ± 0.08 | 0.74 ± 0.13 |  | 0.94 ± 0.31 | 1.13 ± 0.17 |  |  |  |  |  |
| O=C(/C=C/c1ccc(O)c(O)c1)O[C@H](Cc1ccc(O)c(O)c1)C(=O)O [Rosmarinic acid, rosmarinic acid] |  |  |  |  |  | 1.38 ± 0.01 | 1.24 ± 0.45 | 1.13 ± 0.34 | 1.39 ± 0.36 |  |
| O=C(/C=C/c1ccc(O)c(O)c1/C=C/c1ccc(O)c(O)c1)O[C@H](Cc1ccc(O)c(O)c1)C(=O)O [Salvianolic acid A, salvianolic acid A] |  |  |  |  |  | 1.54 ± 0.23 | 1.80 ± 0.81 | 1.42 ± 0.31 | 0.75 ± 0.12 |  |
| O=C(O)Cc1c(/C=C/C(=O)O[C@H](Cc2ccc(O)c(O)c2)C(=O)O)ccc(O)c1O [Salvianolic acid D, salvianolic acid D] | 1.35 ± 0.30 | 2.21 ± 0.89 |  | 1.51 ± 0.73 | 1.09 ± 0.23 |  |  |  |  |  |
| salvianolic acid B | 1.47 ± 0.33 | 4.43 ± 1.12 | substrates | 6.21 ± 1.32 | 1.52 ± 0.67 |  |  |  |  | substrate |
